The source of these data is ChEMBL document CHEMBL1949659, “The green tea polyphenol (2)-epigallocatechin-3-gallate (EGCG) is not a β-secretase inhibitor” (Bioorg Med Chem Lett, 2012).

The structures appear in SMILES notation.

One data set has as its system CHO. Description: Cytotoxicity against CHO cells transfected with human BACE1 and human APP with Swedish mutation at 1 nM to 10 uM by MTT assay. The class given is cell-based, Cricetulus griseus. Conditions: chinese hamster, 0.001 µM.
Data set [1] concerns the target T1, Beta-secretase 1 (Homo sapiens, UniProt P56817). Description: Inhibition of recombinant human BACE1 using Eu-CEVNLDAEFK-Qsy7 as substrate by HTRF assay. In general terms: Time-resolved FRET reads energy transfer from a long-lived donor to a nearby acceptor.
For data set [2], the target named is T1, Beta-secretase 1.
Data set [3] has as its target T1, Beta-secretase 1. This is another data set of the same source.
The target in data set [4] is T1, Beta-secretase 1. The source holds these as a separate data set.
In data set [5] the target is T1, Beta-secretase 1. The source holds these as a separate data set.
The target in data set [6] is T1, Beta-secretase 1. This is another data set of the same source.
Data set [7] concerns the target T1, Beta-secretase 1. The source holds these as a separate data set.
Data set [8] deals with T1, Beta-secretase 1. This is another data set of the same source.
In data set [9] the target is T1, Beta-secretase 1. This is another data set of the same source.
The target of data set [10] is T1, Beta-secretase 1. The source holds these as a separate data set.
In data set [11] the target is T1, Beta-secretase 1. The source holds these as a separate data set.
Data set [12] concerns the target T1, Beta-secretase 1. This is another data set of the same source.
Data set [13] addresses T1, Beta-secretase 1. The source holds these as a separate data set.
Data set [14] deals with Mus musculus. Description: Antialzheimer's disease activity in mouse cortex assessed as inhibition of beta-secretase mediated amyloid beta1-42 production at 1.5 mg/kg. It is filed as functional.
In data set [15] the test system is Mus musculus. In words: Antialzheimer's disease activity in mouse cortex assessed as inhibition of beta-secretase mediated amyloid beta1-42 production at 3 mg/kg. It is filed as functional.
Data set [16] relates to Mus musculus. Description: Antialzheimer's disease activity in mouse hippocampus assessed as inhibition of beta-secretase mediated amyloid beta1-42 production at 1.5 mg/kg. It is filed as functional.
The test system of data set [17] is Mus musculus. Description: Antialzheimer's disease activity in mouse hippocampus assessed as inhibition of beta-secretase mediated amyloid beta1-42 production at 3 mg/kg. It is filed as functional.

T1 sequence (P56817 whole entry): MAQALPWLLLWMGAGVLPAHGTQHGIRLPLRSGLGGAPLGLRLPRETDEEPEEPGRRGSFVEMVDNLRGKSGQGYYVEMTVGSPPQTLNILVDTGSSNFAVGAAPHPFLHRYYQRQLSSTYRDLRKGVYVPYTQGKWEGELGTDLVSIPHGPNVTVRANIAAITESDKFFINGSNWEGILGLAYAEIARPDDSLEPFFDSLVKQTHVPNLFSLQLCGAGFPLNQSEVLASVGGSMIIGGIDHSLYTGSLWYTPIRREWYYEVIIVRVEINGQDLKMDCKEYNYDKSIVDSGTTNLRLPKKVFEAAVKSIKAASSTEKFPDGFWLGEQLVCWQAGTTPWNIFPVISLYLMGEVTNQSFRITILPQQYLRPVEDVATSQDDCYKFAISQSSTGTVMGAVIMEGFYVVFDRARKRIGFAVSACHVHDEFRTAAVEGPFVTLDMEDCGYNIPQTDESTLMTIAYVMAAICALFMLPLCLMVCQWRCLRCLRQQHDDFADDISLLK

As for `O=C(Nc1ccc(N(CCO)CCO)cc1)c1cnc2cc(Cl)cc(Cl)c2c1O`, the Activity entry with CHO is “Non-toxic”. Besides, on Beta-secretase 1 [1], the IC50 was 2270 nM. Further, the RFU came to 39.1 on Beta-secretase 1 [2]; 65.1 on Beta-secretase 1 [3]; 4.36 on Beta-secretase 1 [4]; 13.7 at Beta-secretase 1 [5]; 72 at Beta-secretase 1 [6]; 77.2 on Beta-secretase 1 [7]. The RFU on Beta-secretase 1 [8] was 24.9; at Beta-secretase 1 [9] it was 26.2; at Beta-secretase 1 [10] it was 87.4; on Beta-secretase 1 [11], 90.1; at Beta-secretase 1 [12] it was 80.3; on Beta-secretase 1 [13], 87.4.
On to `C[C@@H](NC(=O)c1cc(C(=O)N[C@@H](Cc2ccccc2)[C@H](O)CNC2CC2)cc(N(C)S(C)(=O)=O)c1)c1ccccc1`, for which the Activity result in the data set with CHO is on record as “Non-toxic”.
`O=C(O[C@@H]1Cc2c(O)cc(O)cc2O[C@@H]1c1cc(O)c(O)c(O)c1)c1cc(O)c(O)c(O)c1` [EPIGALOCATECHIN GALLATE]: in the data set with CHO, the Activity entry is reported as “Non-toxic”. In addition, the values for the inhibition in vivo at 1.5 mg/kg in the data set with Mus musculus [14] and with Mus musculus [16] were 18.6% and 25.5%, respectively. Besides, the figures for the inhibition in vivo at 3 mg/kg in the data set with Mus musculus [15] and with Mus musculus [17] were 51.2% and 39.8%, respectively.
As for `CSc1ccc2c(O)c(C(=O)Nc3ccc(N(CCO)CCO)cc3)cnc2c1`, the Activity entry in the data set with CHO is “Non-toxic”. The IC50 on Beta-secretase 1 [1] came to 2810 nM. Moreover, the RFU at Beta-secretase 1 [2] came to 36.2; at Beta-secretase 1 [3], 69.4; on Beta-secretase 1 [4], 10.5; on Beta-secretase 1 [5], 14.2; at Beta-secretase 1 [6], 73; at Beta-secretase 1 [7] it was 79. Besides, the RFU on Beta-secretase 1 [8] was found to be 21.7; on Beta-secretase 1 [9], 26.8; at Beta-secretase 1 [10], 99.8; at Beta-secretase 1 [11], 99.8; at Beta-secretase 1 [12], 94.8; at Beta-secretase 1 [13], 99.8.
For `CSc1cccc2c(O)c(C(=O)Nc3ccc(N(CCO)CCO)cc3)cnc12`, the Activity entry in the data set on CHO is listed as “Non-toxic”. The IC50 on Beta-secretase 1 [1] worked out at 3840 nM. Also, the RFU stood at 34.1 at Beta-secretase 1 [2]; 63.4 on Beta-secretase 1 [3]; 6.14 at Beta-secretase 1 [4]; 20.2 at Beta-secretase 1 [5]; 67.3 on Beta-secretase 1 [6]; 73.8 on Beta-secretase 1 [7]. For the same compound, the RFU on Beta-secretase 1 [8] stood at 22.2; on Beta-secretase 1 [9], 26.2; at Beta-secretase 1 [10] it was 97.7; at Beta-secretase 1 [11], 98.3; on Beta-secretase 1 [12], 81.5; on Beta-secretase 1 [13], 98.7.

One may read the IC50 as the concentration that inhibits the measured activity by half. What is called inhibition in vivo is the change of the read-out against control, counted positive when it falls.
